Measured values reported in patent US20230148214A1, “INDAZOLES AND AZAINDAZOLES AS LRRK2 INHIBITORS” (ESCAPE Bio, Inc., priority 2020, published 2023).

Assays:
[1] = biological target: T1, LRRK2 G2019S (Homo sapiens, UniProt Q5S007, G2019S); assay: LRRK2 Kinase Activity Assay (LanthaScreen TR-FRET), G2019S; assay type: biochemical; details: recombinant G2019S-LRRK2, 25 μM ATP, 400 nM LRRKtide, 60 min; class symbols
T1 construct: purchased Life Technologies PV4881
Method in brief: (§1)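 IC50 fitted to the compound-dependent loss of TR-FRET signal. Each kinase form, wild type or G2019S, phosphorylated the fluorescein-tagged ERM-derived LRRKtide in the presence of ATP and compound dilutions over 60 min at room temperature; quench contained 10 mM EDTA and 2 nM anti-pERM antibody (final).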

[2] = biological target: T2, LRRK2 WT (Homo sapiens, UniProt Q5S007); assay: LRRK2 Kinase Activity Assay (LanthaScreen TR-FRET), wild type; assay type: biochemical; details: recombinant wild type LRRK2, 25 μM ATP, 400 nM LRRKtide, 60 min; class symbols
T2 construct: purchased Life Technologies PR8604B
Method in brief: as §1

T1 sequence (Q5S007 whole entry G2019S): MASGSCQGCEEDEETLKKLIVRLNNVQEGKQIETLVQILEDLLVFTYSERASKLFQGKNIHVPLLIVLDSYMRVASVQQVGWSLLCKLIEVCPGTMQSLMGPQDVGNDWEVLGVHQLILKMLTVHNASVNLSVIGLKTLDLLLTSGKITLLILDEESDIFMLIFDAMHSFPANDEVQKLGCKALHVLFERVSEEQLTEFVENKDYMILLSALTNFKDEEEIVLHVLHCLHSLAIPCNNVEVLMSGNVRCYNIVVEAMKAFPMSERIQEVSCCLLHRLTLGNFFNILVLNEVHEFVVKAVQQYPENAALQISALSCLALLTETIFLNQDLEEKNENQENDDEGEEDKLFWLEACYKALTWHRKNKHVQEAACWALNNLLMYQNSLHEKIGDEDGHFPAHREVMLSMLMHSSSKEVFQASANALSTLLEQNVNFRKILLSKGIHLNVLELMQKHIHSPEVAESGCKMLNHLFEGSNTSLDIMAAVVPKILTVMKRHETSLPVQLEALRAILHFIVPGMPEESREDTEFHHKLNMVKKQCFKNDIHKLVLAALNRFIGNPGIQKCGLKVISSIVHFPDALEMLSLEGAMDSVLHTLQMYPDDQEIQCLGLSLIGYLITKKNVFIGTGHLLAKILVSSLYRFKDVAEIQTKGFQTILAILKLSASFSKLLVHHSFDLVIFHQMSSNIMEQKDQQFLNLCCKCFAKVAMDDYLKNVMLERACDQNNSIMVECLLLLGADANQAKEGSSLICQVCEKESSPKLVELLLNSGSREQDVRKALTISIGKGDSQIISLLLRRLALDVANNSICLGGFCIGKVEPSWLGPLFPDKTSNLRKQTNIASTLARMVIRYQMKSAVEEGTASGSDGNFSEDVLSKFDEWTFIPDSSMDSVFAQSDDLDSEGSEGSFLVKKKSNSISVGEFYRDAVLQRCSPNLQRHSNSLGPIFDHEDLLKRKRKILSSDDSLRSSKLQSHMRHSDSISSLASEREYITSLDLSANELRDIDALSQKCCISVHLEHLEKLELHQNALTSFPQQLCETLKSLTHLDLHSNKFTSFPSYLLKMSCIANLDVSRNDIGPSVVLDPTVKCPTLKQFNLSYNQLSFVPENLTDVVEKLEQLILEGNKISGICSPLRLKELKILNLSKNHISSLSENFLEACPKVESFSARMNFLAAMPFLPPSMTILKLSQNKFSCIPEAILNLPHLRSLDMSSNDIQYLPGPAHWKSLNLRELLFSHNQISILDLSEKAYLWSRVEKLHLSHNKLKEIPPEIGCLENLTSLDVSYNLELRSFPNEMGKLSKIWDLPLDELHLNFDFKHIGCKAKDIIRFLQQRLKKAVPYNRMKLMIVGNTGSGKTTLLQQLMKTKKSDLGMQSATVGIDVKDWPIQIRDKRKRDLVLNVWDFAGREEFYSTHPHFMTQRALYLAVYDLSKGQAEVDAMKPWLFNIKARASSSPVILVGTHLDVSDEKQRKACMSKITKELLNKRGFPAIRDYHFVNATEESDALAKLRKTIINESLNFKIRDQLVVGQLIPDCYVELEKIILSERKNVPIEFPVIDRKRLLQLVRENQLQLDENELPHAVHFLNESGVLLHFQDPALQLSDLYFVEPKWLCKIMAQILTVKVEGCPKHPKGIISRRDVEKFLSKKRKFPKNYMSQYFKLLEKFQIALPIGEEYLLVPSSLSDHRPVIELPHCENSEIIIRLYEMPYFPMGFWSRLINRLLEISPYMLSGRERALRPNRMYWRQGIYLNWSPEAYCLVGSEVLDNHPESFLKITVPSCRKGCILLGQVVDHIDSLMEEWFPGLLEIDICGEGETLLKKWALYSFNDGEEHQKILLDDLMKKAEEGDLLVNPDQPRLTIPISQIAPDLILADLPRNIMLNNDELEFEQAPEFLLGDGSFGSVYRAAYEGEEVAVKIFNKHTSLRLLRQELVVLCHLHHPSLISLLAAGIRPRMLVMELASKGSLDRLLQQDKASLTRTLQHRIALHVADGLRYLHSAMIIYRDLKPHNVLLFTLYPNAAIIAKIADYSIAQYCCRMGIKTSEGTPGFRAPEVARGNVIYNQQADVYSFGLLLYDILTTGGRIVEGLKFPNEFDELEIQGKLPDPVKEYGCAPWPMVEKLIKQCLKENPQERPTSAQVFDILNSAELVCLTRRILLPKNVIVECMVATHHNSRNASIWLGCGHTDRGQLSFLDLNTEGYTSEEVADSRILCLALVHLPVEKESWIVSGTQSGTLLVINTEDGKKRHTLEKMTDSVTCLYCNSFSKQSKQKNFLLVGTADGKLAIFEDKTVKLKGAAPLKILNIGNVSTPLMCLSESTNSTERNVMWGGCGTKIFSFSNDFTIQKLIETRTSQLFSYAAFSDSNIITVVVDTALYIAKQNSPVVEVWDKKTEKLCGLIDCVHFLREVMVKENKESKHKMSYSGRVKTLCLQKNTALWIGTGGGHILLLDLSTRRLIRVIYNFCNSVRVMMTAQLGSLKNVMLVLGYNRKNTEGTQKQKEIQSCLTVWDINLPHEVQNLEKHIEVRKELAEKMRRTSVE
T2 sequence (Q5S007 whole entry): as the sequence (Q5S007 whole entry G2019S) above, with S2019G counted along it

Row | IC50 [1] | IC50 [2] | SMILES
1 | < 100 nM | 1000 to 10000 nM | N#Cc1ccc2c(c1)CCC[C@@H]2Nc1ccc2[nH]nc(CC3CC3)c2c1 (single isomer, unassigned) [Example 139, enantiomer 2, 5-((3-(Cyclopropylmethyl)-1H-indazol-5-yl)amino)-5,6,7,8-tetrahydronaphthalene-2-carbonitrile]
2 | < 100 nM | 100 to 1000 nM | N#Cc1ccc2c(c1)C1(CC1)C[C@@H]2Nc1ccc2[nH]nc(-c3cnco3)c2c1 (single isomer, unassigned) [Example 140, enantiomer 1, 3′-((3-(Oxazol-5-yl)-1H-indazol-5-yl)amino)-2′,3′-dihydrospiro[cyclopropane-1,1′-indene]-6′-carbonitrile]
3 | < 100 nM | 100 to 1000 nM | N#Cc1ccc2c(c1)C1(CC1)C[C@@H]2Nc1ccc2[nH]nc(-c3cnco3)c2c1 (single isomer, unassigned) [Example 140, enantiomer 2, 3′-((3-(Oxazol-5-yl)-1H-indazol-5-yl)amino)-2′,3′-dihydrospiro[cyclopropane-1,1′-indene]-6′-carbonitrile]
4 | < 100 nM | < 100 nM | N#Cc1cnc2c(c1)CCC[C@@H]2Oc1ccc2[nH]nc(-c3cnn(C(F)F)c3)c2c1 (single isomer, unassigned) [Example 141, enantiomer 1, 8-((3-(1-(Difluoromethyl)-1H-pyrazol-4-yl)-1H-indazol-5-yl)oxy)-5,6,7,8-tetrahydroquinoline-3-carbonitrile]
5 | < 100 nM | 100 to 1000 nM | N#Cc1cnc2c(c1)CCC[C@@H]2Nc1ccc2[nH]nc(-c3cncs3)c2c1 (single isomer, unassigned) [Example 142, enantiomer 1, 8-((3-(Thiazol-5-yl)-1H-indazol-5-yl)amino)-5,6,7,8-tetrahydroquinoline-3-carbonitrile]
6 | < 100 nM | 100 to 1000 nM | N#Cc1ccc2c(c1Cl)CCC[C@@H]2Nc1ccc2[nH]nc(-c3cnco3)c2c1 (single isomer, unassigned) [Example 143, enantiomer 1, 1-Chloro-5-((3-(oxazol-5-yl)-1H-indazol-5-yl)amino)-5,6,7,8-tetrahydronaphthalene-2-carbonitrile]
7 | 100 to 1000 nM | 100 to 1000 nM | N#Cc1cnc2c(c1Cl)CCC[C@@H]2Nc1ccc2[nH]nc(-c3cnco3)c2c1 (single isomer, unassigned) [Example 144, enantiomer 1, 4-Chloro-8-((3-(oxazol-5-yl)-1H-indazol-5-yl)amino)-5,6,7,8-tetrahydroquinoline-3-carbonitrile]
8 | < 100 nM | < 100 nM | N#Cc1cnc2c(c1Cl)CCC[C@@H]2Nc1ccc2[nH]nc(-c3cnco3)c2c1 (single isomer, unassigned) [Example 144, enantiomer 2, 4-Chloro-8-((3-(oxazol-5-yl)-1H-indazol-5-yl)amino)-5,6,7,8-tetrahydroquinoline-3-carbonitrile]
9 | < 100 nM | 100 to 1000 nM | N#Cc1cnc2c(c1C(F)(F)F)CCC[C@@H]2Nc1ccc2[nH]nc(-c3cnco3)c2c1 (single isomer, unassigned) [Example 145, enantiomer 1, 8-((3-(Oxazol-5-yl)-1H-indazol-5-yl)amino)-4-(trifluoromethyl)-5,6,7,8-tetrahydroquinoline-3-carbonitrile]
10 | < 100 nM | 100 to 1000 nM | COc1c(C#N)cnc2c1CCC[C@@H]2Nc1ccc2[nH]nc(-c3cnco3)c2c1 (single isomer, unassigned) [Example 146, enantiomer 1, 4-Methoxy-8-((3-(oxazol-5-yl)-1H-indazol-5-yl)amino)-5,6,7,8-tetrahydroquinoline-3-carbonitrile]
11 | < 100 nM | < 100 nM | N#Cc1cnc2c(c1C(F)F)CCC[C@@H]2Nc1ccc2[nH]nc(-c3cnco3)c2c1 (single isomer, unassigned) [Example 147, enantiomer 1, 4-(Difluoromethyl)-8-((3-(oxazol-5-yl)-1H-indazol-5-yl)amino)-5,6,7,8-tetrahydroquinoline-3-carbonitrile]
12 | < 100 nM | 100 to 1000 nM | N#Cc1cnc2c(c1C(F)F)CCC[C@@H]2Nc1ccc2[nH]nc(-c3cnco3)c2c1 (single isomer, unassigned) [Example 147, enantiomer 2, 4-(Difluoromethyl)-8-((3-(oxazol-5-yl)-1H-indazol-5-yl)amino)-5,6,7,8-tetrahydroquinoline-3-carbonitrile]
13 | < 100 nM | < 100 nM | N#Cc1cnc2c(c1)CCC[C@@H]2Nc1ccc2[nH]nc(-c3ccc[nH]3)c2c1 (single isomer, unassigned) [Example 148, enantiomer 1, 8-((3-(1H-Pyrrol-2-yl)-1H-indazol-5-yl)amino)-5,6,7,8-tetrahydroquinoline-3-carbonitrile]
14 | 100 to 1000 nM | 100 to 1000 nM | N#Cc1cnc2c(c1)CCC[C@@H]2Nc1ccc2[nH]nc(-c3ccc[nH]3)c2c1 (single isomer, unassigned) [Example 148, enantiomer 2, 8-((3-(1H-Pyrrol-2-yl)-1H-indazol-5-yl)amino)-5,6,7,8-tetrahydroquinoline-3-carbonitrile]
15 | 100 to 1000 nM | 100 to 1000 nM | Cn1ccc(-c2n[nH]c3ccc(N[C@H]4CCCc5cc(C#N)cnc54)cc23)c1 (single isomer, unassigned) [Example 149, enantiomer 1, 8-((3-(1-Methyl-1H-pyrrol-3-yl)-1H-indazol-5-yl)amino)-5,6,7,8-tetrahydroquinoline-3-carbonitrile]
16 | < 100 nM | < 100 nM | Cn1ccc(-c2n[nH]c3ccc(N[C@H]4CCCc5cc(C#N)cnc54)cc23)c1 (single isomer, unassigned) [Example 149, enantiomer 2, 8-((3-(1-Methyl-1H-pyrrol-3-yl)-1H-indazol-5-yl)amino)-5,6,7,8-tetrahydroquinoline-3-carbonitrile]
17 | 100 to 1000 nM | 100 to 1000 nM | Cc1c(C#N)cnc2c1CCC[C@@H]2Nc1ccc2[nH]nc(-c3cnco3)c2c1 (single isomer, unassigned) [Example 150, enantiomer 1, 4-Methyl-8-((3-(oxazol-5-yl)-1H-indazol-5-yl)amino)-5,6,7,8-tetrahydroquinoline-3-carbonitrile]
18 | < 100 nM | < 100 nM | Cc1c(C#N)cnc2c1CCC[C@@H]2Nc1ccc2[nH]nc(-c3cnco3)c2c1 (single isomer, unassigned) [Example 150, enantiomer 2, 4-Methyl-8-((3-(oxazol-5-yl)-1H-indazol-5-yl)amino)-5,6,7,8-tetrahydroquinoline-3-carbonitrile]
19 | < 100 nM | 100 to 1000 nM | N#Cc1ccc2c(c1F)CC(F)(F)[C@@H]2Nc1ccc2[nH]nc(-c3cnco3)c2c1 (single isomer, unassigned) [Example 151, enantiomer 1, 2,2,4-Trifluoro-1-((3-(oxazol-5-yl)-1H-indazol-5-yl)amino)-2,3-dihydro-1H-indene-5-carbonitrile]
20 | 1000 to 10000 nM | 1000 to 10000 nM | N#Cc1ccc2c(c1)CCCC2Oc1ccc2[nH]nc(C(F)(F)F)c2c1 (single isomer, unassigned) [Example 152, enantiomer 1, 5-((3-(Trifluoromethyl)-1H-indazol-5-yl)oxy)-5,6,7,8-tetrahydronaphthalene-2-carbonitrile]
21 | < 100 nM | 1000 to 10000 nM | N#Cc1ccc2c(c1)CCCC2Nc1ccc2[nH]nc(C(F)(F)F)c2c1 (single isomer, unassigned) [Example 153, enantiomer 1, 5-((3-(Trifluoromethyl)-1H-indazol-5-yl)amino)-5,6,7,8-tetrahydronaphthalene-2-carbonitrile]
22 | < 100 nM | < 100 nM | COc1c(C#N)cnc2c1CC[C@@H]2Nc1ccc2[nH]nc(-c3cnco3)c2c1 (single isomer, unassigned) [Example 154, enantiomer 2, 4-Methoxy-7-((3-(oxazol-5-yl)-1H-indazol-5-yl)amino)-6,7-dihydro-5H-cyclopenta[b]pyridine-3-carbonitrile]
23 | < 100 nM | < 100 nM | Cc1ncc(-c2n[nH]c3ccc(N[C@@H]4c5ccc(C#N)cc5CC4(F)F)cc23)o1 (single isomer, unassigned) [Example 155, enantiomer 1, 2,2-Difluoro-1-((3-(2-methyloxazol-5-yl)-1H-indazol-5-yl)amino)-2,3-dihydro-1H-indene-5-carbonitrile]
24 | < 100 nM | < 100 nM | Cc1ncc(-c2n[nH]c3ccc(O[C@H]4CCc5c4ccc(C#N)c5F)cc23)o1 (single isomer, unassigned) [Example 156, enantiomer 1, 4-Fluoro-1-((3-(2-methyloxazol-5-yl)-1H-indazol-5-yl)oxy)-2,3-dihydro-1H-indene-5-carbonitrile]
25 | 100 to 1000 nM | 100 to 1000 nM | N#Cc1ccc2c(c1)CCC[C@@H]2Nc1ccc2[nH]nc(-c3ccn[nH]3)c2c1 (single isomer, unassigned) [Example 157, enantiomer 1, 5-((3-(1H-Pyrazol-5-yl)-1H-indazol-5-yl)amino)-5,6,7,8-tetrahydronaphthalene-2-carbonitrile]
26 | < 100 nM | < 100 nM | N#Cc1ccc2c(c1)CCC[C@@H]2Nc1ccc2[nH]nc(-c3ccn[nH]3)c2c1 (single isomer, unassigned) [Example 157, enantiomer 2, 5-((3-(1H-Pyrazol-5-yl)-1H-indazol-5-yl)amino)-5,6,7,8-tetrahydronaphthalene-2-carbonitrile]
27 | < 100 nM | < 100 nM | Cc1cc(-c2n[nH]c3ccc(N[C@H]4CCCc5cc(C#N)cnc54)cc23)sn1 (single isomer, unassigned) [Example 158, enantiomer 1, 8-((3-(3-Methylisothiazol-5-yl)-1H-indazol-5-yl)amino)-5,6,7,8-tetrahydroquinoline-3-carbonitrile]
